Results taken from US8343539B2, “Compounds that bind α5β1 integrin and methods of use” (Regents of the University of Minnesota, priority 2006, dated 2013).
“Also recorded” adds a separate entry of the source. Primed or numbered codes have the meaning given here. Where no end group is shown, it is not given here. [ ]: non-standard residue; d: D form. (C16)2‑Glu‑C2″ = N-terminal tail: two C16 chains, glutamic acid linker, -(CH2)2- spacer; (C16)2‑Glu‑C2 = lipid tail; Abu = CC[C@H](N)C(=O)O

Legend:
integrin αvβ3 = target: T1, integrin αvβ3 (Homo sapiens, UniProt P05106+P06756); assay: Adhesion blocking with anti-integrin αvβ3 antibody (LM609); format: cell-based; details: anti-αvβ3 antibody 20 μg/ml, 1 hour, HUVECs 249 cells/mm^2
T1 construct: HUVECs were prepared and counted as described in the cell adhesion protocol; endogenous in cells; host or cells: HUVEC (human umbilical vein endothelial cells)
Protocol: Adhesion blocking experiments: Blocking experiments were done using mouse anti-human integrin as (P1D6), β1 (P5D2), α5β1 (JBS5), and αvβ3 (LM609) monoclonal antibodies (Chemicon Int.). All surfaces were transferred to 24- or 12-well plates and pre-incubated in 0.1% BSA media as described above. HUVECs were prepared and counted as described in the cell adhesion protocol. Cells were blocked by mixing the cell suspension with the appropriate antibody in 0.1% BSA media, and incubating for 30 minutes at 37° C., 5% CO2 with constant agitation. Blocked cells were then released onto LB and FN surfaces and allowed to adhere for 1 hour at 37° C., 5% CO2. […] Following incubation, surfaces were washed, and adhered cells were quantified as described in the cell adhesion protocol.

HUVECs [1] = assay: Actin cytoskeleton and focal adhesion staining; format: cell-based, human; details: for Actin fibers and focal adhesion points: 12 hours
Protocol: Actin cytoskeleton and focal adhesion staining: Surface transferring, cell seeding, incubation, and fixing were done as described above. Staining for the actin cytoskeleton, focal adhesions, and nucleus of attached cells was done using the Actin Cytoskeleton and Focal Adhesion Staining Kit following the manufacturer's protocol (Chemicon Int.) and using 1:350 dilution for anti-vinculin antibody, 1:200 for the secondary antibody, approximately 1:1000 dilution (equivalent to 1 unit/surface) for TRITC-conjugated phalloidin and 1:1000 for DAPI. After washing, surfaces were mounted onto glass slides and stored at 4° C. protected from light. A confocal microscope (BIORAD Multiphoton Confocal 1024) was used for imaging.

HUVECs [2] = assay: Extracellular fibronectin production by HUVECs (Example 1); format: cell-based, human; details: for Fibronectin production by adhered HUVECs: 12 and 24 hours; for Fibronectin secretion by adhered HUVECs: after 48 hours
Protocol: (§1) Cell spreading and fibronectin production experiments: Surface transferring, cell seeding, and incubation were done in the same manner as in the adhesion experiment, with a cell density of 497 cells/mm^2, and incubation times of 1, 12, 24, 48, and 72 hour. At the end of each incubation, the surfaces were removed, washed with […] of PBS, and fixed in 1 ml of 4% paraformaldehyde (Sigma) in PBS for 15 minutes at 37° C., 5% CO2. After washing with PBS, surfaces were first labeled for secreted fibronectin: surfaces were subjected to a blocking solution (0.1% BSA in PBS) for 30 minutes, incubated for 1 hour with a primary antibody specific for secreted fibronectin (mouse anti-human fibronectin (P1H11) monoclonal antibody (Chemicon Int.) at a 1:500 dilution in blocking solution, and then for 45 minutes with a secondary antibody (IgG fluorescein (FITC) conjugated antibody; Chemicon Int.) at a 1:200 dilution in PBS. As a final step, cell membranes and nuclei were stained using the Image-iT™ LIVE Plasma Membrane and Nuclear Labeling Kit following the manufacturer's protocol for labeling fixed cells (Molecular Probes). After final washing, surfaces were mounted onto glass slides and stored at 4° C. protected from light. An inverted fluorescent microscope (Nikon Eclipse TE200 with Pixcell II LCM) was used for imaging. Fibronectin production was assessed visually, by comparing 10-20 fluorescence images from two samples for each substrate (two independent experiments performed at different days). Cell spreading was quantified from two samples per substrate (two independent experiments performed at different days) by measuring cell area with the NIH imaging software.

HUVECs [3] = assay: HUVEC adhesion on LB membranes of peptide-amphiphiles (Example 1); format: cell-based, human; details: 1-72 hours, no serum
Description: Surface preparation: Peptide-amphiphiles, listed in Table 1, were synthesized as described in the literature (Berndt et al., J. Am. Chem. Soc., 1995; 117:9515-9522). Langmuir-Blodgett (LB) membranes constructed from peptide-amphiphiles were deposited onto 15 mm mica disks as described elsewhere (Kokkoli et al., Langmuir, 2004; 20:2397-2404). Shortly before cell assays, the LB films were transferred into 24-well plates containing 1× phosphate buffered saline (PBS) solution (Mediatech), without exposing surfaces to air, as they rearrange to form multilayers (Hansma et al., Method. Cell Biol., 2002; 69:163-193). After equilibrating for 5-10 minutes, PBS was exchanged with 1 ml of MCDB-131 basal media (Sigma) supplemented with 0.1% bovine serum albumin (BSA) (Sigma) and antibiotics (Sigma) (2.5 μg/ml gentamicin, 2.5 μg/ml amphotericin B, 50 U/ml penicillin, and 50 μg/ml streptomycin), referred to as 0.1% BSA media. Surfaces were equilibrated at 37° C., 5% CO2 for 30-60 minutes before adding the cells. Human fibronectin-coated round coverslips (FN) 22 mm in diameter (BD Biosciences) were put into 12-well plates and 2 ml of 0.1% BSA media was added to each well. Surfaces were equilibrated for 30-60 minutes at 37° C., 5% CO2.
Cell culture: Human umbilical vein endothelial cells, HUVECs, (Cambrex Corporation) were cultured in MCDB-131 containing 20% fetal bovine serum (FBS) (Atlas Biologicals) at 37° C., 5% CO2. Other nutrients and antibiotics supplementing the media were added based on an optimal HUVEC proliferation study (Terramani et al., In Vitro Cell Dev. Biol.—Animal, 2000; 36:125-132). Media was changed in the culture flasks every other day. Cells used for adhesion and imaging studies were in passages 3-4.
Cell adhesion experiments: After cells became 90% confluent they were washed with PBS, trypsinized with 0.25% Trypsin-EDTA (Cambrex Corporation), neutralized with MCDB-131 with 2% FBS, and spun at 1000 rpm for 10 minutes. The supernatant was removed and the cell pellet was resuspended in 0.1% BSA media. Cells were counted with a hemocytometer and seeded onto LB and FN surfaces at a density of 497 cells/mm^2. Surfaces were incubated with cells in 0.1% BSA media at 37° C., 5% CO2, for 1, 4, 12, 24, 48, and 72 hours. Cell adhesion was quantified using the CyQuant Cell Proliferation Assay Kit, with a dye that binds to cellular nucleic acids, following the manufacturer's protocol (Molecular Probes). A calibration standard curve was created for each experiment. The plates were read on a SpectraMAX GeminiXS (Molecular Devices).

HUVECs [4] = assay: HUVEC spreading on substrates (cell area); format: cell-based, human; details: for HUVEC spreading (cell area): 1-24 hours; for HUVEC spreading, rank among surfaces: all times examined, 1-72 hours
Protocol: as §1

α5β1 integrin = α5β1 integrin (Homo sapiens, UniProt P05556+P08648); details: inferred from literature on polyglycine linkers (Petrie 2006); cited from earlier work
HUVECs [5] = assay: HUVEC adhesion timed experiments on LB membranes (Example 2); format: cell-based, human; details: for Maintenance / decay of HUVEC adhesion over time: up to 12 hours
Protocol: Surface preparation: Each peptide-amphiphile was used to form homogenous LB membranes as in previous work (Kokkoli Langmuir 2004; 20:2397-2404), except that both the water and 15 mm mica disks used had been autoclaved for sterility. All depositions were done at a surface pressure between 41 and 47 mN/m, well below the collapse pressure and in the liquid-condensed or solid phase. Approximately 90 minutes before cells were seeded on the LB films to begin cell adhesion experiments, mica surfaces were transferred into 1× phosphate buffered saline (PBS), with particular care taken to ensure films were not exposed to air. After 5-10 minutes of equilibration, surfaces were transferred into 24-well plates containing a supplemented MCDB-131 basal media (Sigma), as described in Example 1. Following surface transfer, 24-well plates were moved to a 37° C., 5% CO2 incubator for 45-60 minutes. As a control, 22 mm diameter human fibronectin-coated coverslips (BD Biosciences), referred to as FN, were put into 12-well plates, covered with 2 ml of the supplemented media, and also incubated for 45-60 minutes.
Cell culture: Human umbilical vein endothelial cells, HUVECs (Cambrex Corporation), were cultured as described previously (see Example 1). Only cells from passage 3 were used in all studies.
Cell adhesion experiments: Flasks of HUVECs with at least 90% confluency were washed with 1×PBS, trypsinized with 0.25% Trypsin-EDTA (Fisher Scientific), and neutralized with 2% fetal bovine serum in MCDB-131 basal media. The suspended cells from all flasks were placed in one 50 ml centrifuge tube and centrifuged at 1000 rpm for 5 minutes. The media was removed and the cell pellet was resuspended in the supplemented media described above. A hemocytometer was used to count the cells and then 497 cells/mm^2 were seeded onto both LB and FN surfaces. Surfaces were incubated with cells at 37° C., 5% CO2 for 1, 4, or 12 hours. Cell adhesion following these times was determined using the CyQuant cell proliferation assay kit (Molecular Probes), which measures the fluorescence of a cellular nucleic acid-binding dye using the SpectraMAX GeminiXS plate reader (Molecular Devices). Standard calibration curves were created within each experiment for both 12- and 24-well plates.

HUVECs [6] = assay: Fibronectin production staining (Example 2); format: cell-based, human; details: 12 hours
Protocol: Fibronectin production staining: Surface preparation, transfer, and cellular work were all done as described in the previous methods. Only surfaces incubated with cells for 12 hours were stained. The staining protocol, involving a primary antibody for secreted fibronectin (Chemicon), a FITC-conjugated secondary antibody (Chemicon), and the Image-iT LIVE plasma membrane and nuclear labeling kit (Molecular Probes), was done as previously described in Example 1. A single photon confocal microscope (Olympus FluoView FV1000) was used for imaging. Two slides per substrate were prepared each during 2 separate experiments and each slide was imaged 2-4 times. The final images chosen were all taken from one experiment for consistency, but were representative of the images obtained from both experiments.

[7] = target: T2, mouse α5β1 integrin on CT26.WT cells (mouse, UniProt P11688 45-1053; P09055 21-798); assay: flow cytometry, liposomes on CT26.WT cells, 4 °C, 3 hrs
T2 construct: whole, on cells; Endogenous on mouse colon carcinoma cells; also called integrin α5β1 expressing CT26.WT cells

[8] = target: T2, mouse α5β1 integrin on CT26.WT cells; assay: flow cytometry, PR_b stealth liposomes on CT26.WT cells, 4 °C, 3 hrs
Protocol: Tubes were incubated at 4° C. or 37° C. over a rotary shaker for the specified duration of time. Cells were then pelleted and washed twice in FB. Flow cytometric analysis was carried out immediately. For peptide blocking experiments, the protocol specified above was used except cells were incubated with 200 µg/ml of free peptide-amphiphile in FB for one hour prior to incubating the cells with the liposomes. […] All experiments were repeated twice but results are presented from a single experiment.

T2 sequence (P11688 45-1053, chain 1 of 2): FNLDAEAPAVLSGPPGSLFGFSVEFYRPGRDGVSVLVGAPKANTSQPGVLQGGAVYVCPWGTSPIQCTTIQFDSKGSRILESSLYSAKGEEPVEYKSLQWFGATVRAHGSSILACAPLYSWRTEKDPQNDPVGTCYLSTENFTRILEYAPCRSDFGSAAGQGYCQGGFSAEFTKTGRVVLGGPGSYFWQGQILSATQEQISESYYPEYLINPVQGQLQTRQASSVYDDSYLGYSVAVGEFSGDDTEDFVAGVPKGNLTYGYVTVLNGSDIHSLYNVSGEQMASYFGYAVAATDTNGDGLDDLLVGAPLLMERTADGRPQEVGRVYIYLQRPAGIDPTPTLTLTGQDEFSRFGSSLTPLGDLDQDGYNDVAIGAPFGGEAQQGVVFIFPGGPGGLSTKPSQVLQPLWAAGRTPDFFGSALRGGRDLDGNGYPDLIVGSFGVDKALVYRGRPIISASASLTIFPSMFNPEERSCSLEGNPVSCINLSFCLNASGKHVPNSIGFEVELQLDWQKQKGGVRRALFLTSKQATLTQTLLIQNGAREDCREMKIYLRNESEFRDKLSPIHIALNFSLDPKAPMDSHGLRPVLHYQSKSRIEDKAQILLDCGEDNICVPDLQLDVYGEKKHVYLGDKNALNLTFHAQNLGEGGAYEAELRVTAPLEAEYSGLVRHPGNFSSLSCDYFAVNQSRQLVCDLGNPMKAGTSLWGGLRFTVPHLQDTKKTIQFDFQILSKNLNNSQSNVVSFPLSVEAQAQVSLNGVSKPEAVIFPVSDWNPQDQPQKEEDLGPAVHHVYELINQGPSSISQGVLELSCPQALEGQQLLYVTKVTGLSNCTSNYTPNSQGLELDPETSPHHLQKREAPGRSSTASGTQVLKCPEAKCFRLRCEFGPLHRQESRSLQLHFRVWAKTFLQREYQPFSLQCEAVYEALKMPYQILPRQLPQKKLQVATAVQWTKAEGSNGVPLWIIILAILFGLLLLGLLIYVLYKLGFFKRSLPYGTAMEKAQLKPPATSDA
T2 sequence (P09055 21-798, chain 2 of 2): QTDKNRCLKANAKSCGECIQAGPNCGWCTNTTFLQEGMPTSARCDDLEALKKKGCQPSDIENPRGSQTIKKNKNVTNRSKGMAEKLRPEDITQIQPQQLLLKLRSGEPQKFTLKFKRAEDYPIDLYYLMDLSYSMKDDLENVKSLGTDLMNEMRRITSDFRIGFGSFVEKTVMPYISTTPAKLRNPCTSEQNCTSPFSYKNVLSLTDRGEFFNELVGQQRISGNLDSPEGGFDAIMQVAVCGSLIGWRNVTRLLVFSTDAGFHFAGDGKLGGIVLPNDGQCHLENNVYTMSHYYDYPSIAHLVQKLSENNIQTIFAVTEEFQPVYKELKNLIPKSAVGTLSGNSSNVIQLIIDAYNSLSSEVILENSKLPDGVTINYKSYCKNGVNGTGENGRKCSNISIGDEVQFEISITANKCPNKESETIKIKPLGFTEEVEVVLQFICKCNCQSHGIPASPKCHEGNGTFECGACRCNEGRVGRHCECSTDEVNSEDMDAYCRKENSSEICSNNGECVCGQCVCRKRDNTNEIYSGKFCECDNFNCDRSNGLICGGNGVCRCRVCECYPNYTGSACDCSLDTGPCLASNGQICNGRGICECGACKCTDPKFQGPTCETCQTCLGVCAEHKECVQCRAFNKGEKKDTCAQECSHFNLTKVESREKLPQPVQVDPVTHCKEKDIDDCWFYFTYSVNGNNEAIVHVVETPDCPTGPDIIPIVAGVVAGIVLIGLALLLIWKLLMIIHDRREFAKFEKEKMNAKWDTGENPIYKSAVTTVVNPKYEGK
α5β1 integrin, sequence (P08648 42-894 limits assumed): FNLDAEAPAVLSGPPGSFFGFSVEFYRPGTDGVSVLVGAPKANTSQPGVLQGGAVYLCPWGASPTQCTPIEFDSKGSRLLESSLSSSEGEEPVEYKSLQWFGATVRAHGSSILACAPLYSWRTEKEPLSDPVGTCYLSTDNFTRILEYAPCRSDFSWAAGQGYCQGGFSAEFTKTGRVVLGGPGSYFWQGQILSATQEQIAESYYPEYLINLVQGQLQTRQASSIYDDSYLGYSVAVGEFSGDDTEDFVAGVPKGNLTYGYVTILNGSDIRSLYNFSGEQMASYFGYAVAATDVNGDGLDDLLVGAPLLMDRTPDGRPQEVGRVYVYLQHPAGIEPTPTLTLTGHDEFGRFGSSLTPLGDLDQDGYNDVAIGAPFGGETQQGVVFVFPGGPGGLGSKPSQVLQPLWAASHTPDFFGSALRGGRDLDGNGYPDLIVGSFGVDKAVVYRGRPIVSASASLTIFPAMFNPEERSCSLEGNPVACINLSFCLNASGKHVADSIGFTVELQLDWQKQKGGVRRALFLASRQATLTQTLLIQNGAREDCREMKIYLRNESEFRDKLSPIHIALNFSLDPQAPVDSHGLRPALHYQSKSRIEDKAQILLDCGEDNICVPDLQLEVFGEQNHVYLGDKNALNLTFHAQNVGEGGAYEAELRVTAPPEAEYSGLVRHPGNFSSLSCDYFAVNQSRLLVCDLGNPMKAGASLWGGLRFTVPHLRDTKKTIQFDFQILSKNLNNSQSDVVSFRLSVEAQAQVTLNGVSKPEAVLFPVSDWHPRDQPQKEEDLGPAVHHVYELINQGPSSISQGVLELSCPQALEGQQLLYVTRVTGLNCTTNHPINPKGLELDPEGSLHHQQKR
α5β1 integrin, sequence (P08648 895-1049 partner limits assumed): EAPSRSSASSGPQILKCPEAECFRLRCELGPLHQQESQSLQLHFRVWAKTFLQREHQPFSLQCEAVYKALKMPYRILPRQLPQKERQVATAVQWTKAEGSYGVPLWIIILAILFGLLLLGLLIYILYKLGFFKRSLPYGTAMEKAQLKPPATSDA
α5β1 integrin, sequence (P05556 21-798): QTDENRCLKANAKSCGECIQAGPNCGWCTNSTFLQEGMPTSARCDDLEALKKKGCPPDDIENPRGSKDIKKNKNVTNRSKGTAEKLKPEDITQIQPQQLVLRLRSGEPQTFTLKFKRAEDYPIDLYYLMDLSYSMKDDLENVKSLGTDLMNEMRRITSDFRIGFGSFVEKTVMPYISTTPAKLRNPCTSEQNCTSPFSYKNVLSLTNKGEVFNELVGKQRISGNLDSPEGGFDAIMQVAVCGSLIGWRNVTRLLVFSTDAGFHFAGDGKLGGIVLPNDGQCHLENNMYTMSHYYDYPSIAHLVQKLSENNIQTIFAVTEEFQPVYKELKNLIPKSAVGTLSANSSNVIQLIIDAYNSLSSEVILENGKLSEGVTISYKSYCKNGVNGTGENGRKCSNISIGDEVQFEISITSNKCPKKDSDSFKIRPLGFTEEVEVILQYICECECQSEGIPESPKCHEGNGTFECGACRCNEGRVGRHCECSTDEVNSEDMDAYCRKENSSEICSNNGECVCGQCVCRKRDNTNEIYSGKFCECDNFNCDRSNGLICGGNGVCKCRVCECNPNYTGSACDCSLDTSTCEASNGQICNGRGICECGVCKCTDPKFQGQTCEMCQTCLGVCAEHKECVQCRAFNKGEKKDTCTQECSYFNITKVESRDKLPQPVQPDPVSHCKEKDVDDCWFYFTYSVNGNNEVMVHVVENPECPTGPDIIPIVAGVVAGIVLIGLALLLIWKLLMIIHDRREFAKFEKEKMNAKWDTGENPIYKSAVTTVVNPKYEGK

(C16)2-Glu-C2-GRGDSP
reduction in cell adhesion compared to adhesion of non-blocked cells (integrin αvβ3): 75.99±1.51%
Focal adhesion contacts (vinculin) (HUVECs [1]): did not form strong focal adhesion contacts
Actin fibers and focal adhesion points (HUVECs [1]): some actin fiber formation
Actin organization (HUVECs [1]; 24 hours): actin organization became less pronounced
Fibronectin production by adhered HUVECs (HUVECs [2]): significantly less compared to FN and PR_b
Fibronectin secretion by adhered HUVECs (HUVECs [2]): minimal fibronectin secretion
Ability of substrate to sustain HUVEC adhesion over time (HUVECs [3]): failed to sustain HUVEC adhesion after 48 hours; also recorded: failed to sustain cell adhesion after 48 hours
HUVEC spreading (cell area) (HUVECs [4]): higher compared to GRGESP, but much smaller than FN

(C16)2-Glu-C2-GRGESP ({(C16)2‑Glu‑C2}-GRGESP) [negative control peptide-amphiphile]
Actin fibers and focal adhesion points (HUVECs [1]): no distinct actin fibers and very few focal adhesion points
Fibronectin production by adhered HUVECs (HUVECs [2]): significantly less compared to FN and PR_b
Fibronectin secretion by adhered HUVECs (HUVECs [2]): minimal fibronectin secretion
Ability of substrate to sustain HUVEC adhesion over time (HUVECs [3]): failed to sustain cell adhesion after 48 hours
HUVEC spreading (cell area) (HUVECs [4]): smallest

(C16)2-Glu-C2-KSSPHSRNGGGGGGGGGGRGDSP ({(C16)2‑Glu‑C2}-KSSPHSRNGGGGGGGGGGRGDSP) [Pr_c]
Specificity for the α5β1 integrin (α5β1 integrin): not specific to the α5β1 integrin
HUVEC adhesion level (description) (HUVECs [5]; 1, 4 and 12 hours): high adhesion at 1 hour
Maintenance / decay of HUVEC adhesion over time (HUVECs [5]): not maintained at longer time periods

(C16)2-Glu-C2-KSSPHSRNSSSSSSSSSSRGDSP ({(C16)2‑Glu‑C2}-KSSPHSRNSSSSSSSSSSRGDSP) [Pr_d]
HUVEC adhesion level (description) (HUVECs [5]; 1, 4 and 12 hours): good adhesion out to 4 hours
Maintenance / decay of HUVEC adhesion over time (HUVECs [5]): extreme drop-off at 12 hours

(C16)2-Glu-C2-PHSRNSGSGSGSGRGDSP ({(C16)2‑Glu‑C2}-PHSRNSGSGSGSGRGDSP) [PR_a]
HUVEC adhesion compared with FN (HUVECs [5]; 1 hour): no statistical difference
HUVEC adhesion compared with FN (HUVECs [5]; 4 hours): no difference in adhesion
HUVEC adhesion compared with FN (HUVECs [5]; 12 hours): statistically higher than FN
Ability of substrate to sustain HUVEC adhesion over time (HUVECs [3]): effectively adhered
HUVEC spreading (cell area) (HUVECs [4]): mostly spread
HUVEC spreading, rank among surfaces (HUVECs [4]): third

(C16)2-Glu-C2-PHSRNSGSGSGSGSGRGDSP ({(C16)2‑Glu‑C2}-PHSRNSGSGSGSGSGRGDSP) [Pr_e]
HUVEC adhesion compared with FN, overall (HUVECs [5]; 1, 4 and 12 hours): superior cell adhesion performance; also recorded: outperformed
HUVEC adhesion compared with Pr_a, overall (HUVECs [5]; 1, 4 and 12 hours): superior cell adhesion performance; also recorded: outperformed
HUVEC adhesion compared with FN (HUVECs [5]; 1 hour): higher HUVEC adhesion
HUVEC adhesion compared with Pr_a (HUVECs [5]; 1 hour): higher HUVEC adhesion
HUVEC adhesion compared with FN (HUVECs [5]; 4 hours): higher adhesion than FN
HUVEC adhesion compared with Pr_a (HUVECs [5]; 4 hours): no statistical difference
HUVEC adhesion compared with FN (HUVECs [5]; 12 hours): statistically higher than FN
HUVEC adhesion compared with Pr_a (HUVECs [5]; 12 hours): not statistically different

FN: Human fibronectin-coated round coverslips (BD Biosciences), positive control
Fibronectin (ECM) production by adhered HUVECs (HUVECs [6]): allow both cell adhesion and ECM production; also recorded: allowed attached cells to produce fibronectin
Actin stress fibers and focal contacts (HUVECs [1]; 1-72 hours): displayed actin stress fibers and focal contacts
Fibronectin secretion by adhered HUVECs (HUVECs [2]): fully covered with secreted fibronectin
HUVEC spreading (cell area) (HUVECs [4]): mostly spread
HUVEC spreading, rank among surfaces (HUVECs [4]): second

B1: GRGDSP peptide-amphiphile (C16)2-Glu-C2-KAbuGRGDSPAbuK (peptide)
peptide: {(C16)2‑Glu‑C2}-K[Abu]GRGDSP[Abu]K
notes: also called GRGDSP-targeted liposomes; GRGDSP-functionalized liposomes
binding result [7]: binds

{(C16)2‑Glu‑C2″}-KSSPHSRNSGSGSGSGSGRGDSP [PR_b peptide-amphiphile (C16)2-Glu-C2-KSSPHSRNSGSGSGSGSGRGDSP]
reduction of binding against stealth liposomes with about 2.5 mol % PR_b [8]: 10 fold
increase of binding against 2.5 mol % GRGDSP low PEG2000 liposomes [7]: ~100 fold
